# In patent US20150258107A1, “METHODS AND COMPOSITIONS FOR TREATING DEPRESSION” (DemeRx, Inc., priority 2014, published 2015):
# Where two headings read alike, the source gives them in different places.
# Experiments:
# [1] = Pharmacokinetics of noribogaine in healthy male volunteers (plasma and urine, LCMSMS); conditions: for CL/F / AUC0-216 / AUC0-∞ / Cmax / Tmax / T½: mean (SD); for AUC0-216 / AUC0-∞ / Cmax / Tmax / T½: plasma
# [2] = Plasma toxicokinetics in dogs, fourteen day repeat dose; assay type: in vivo, dog
# Method: Noribogaine HCl was administered to groups of 4 male and 4 female dogs by single oral gavage daily for 14 days at doses of 0, 0.5, 1.0 and 5.0 mg/kg/day. An additional group of 4 male and 4 female dogs received either the vehicle control or 5.0 mg/kg/day for 14 days and were held for an additional 28 days after cessation of dosing to assess recovery from any potential drug-induced changes. The study was conducted under GLP guidelines and included comprehensive examinations of clinical signs, body weight, clinical pathology parameters, ophthalmologic examinations, ECG recordings and analyses of plasma for bioanalytical measurement of drug levels at appropriate intervals during the study. At the termination of the dosing phase and at the termination of the recovery phase, all dogs were subjected to a complete post-mortem examination including gross examination of major organs and histologic examination of an extensive list of tissues. Additional sections of brain were obtained from cerebrum, cerebellus, brain stem and spinal cord and examined histologically to evaluate potential effects on brain histopathology. In addition, these sections were examined with immunohistochemical stains for GFAP for evidence of gliosis and Calbindin for a more comprehensive examination of cerebellar Purkinje cells.
# [3] = system: dogs; assay: Single dose (acute oral) toxicity/TK study in dogs; assay type: in vivo, dog
# [4] = Single dose (acute oral) toxicity/TK study in dogs; assay type: in vivo, dog; conditions: dog, in vivo; single oral dose
# [5] = system: cynomolgus monkey; assay: Single dose toxicity in cynomolgus monkeys; assay type: in vivo; conditions: oral gavage, doses up to and including 160 mg/kg
# Method: (§1) The objective of the study was to determine the toxicity and toxicokinetic profile of noribogaine following oral (gavage) administration to the cynomolgus monkey. Each dose was followed by a 7 day washout period. Dosing was staggered by 45 minutes. On study day 15, one animal was administered 80 mg/kg and the other animal was administered 160 mg/kg. The test article was administered as follows in Table 1:
# (§2) Parameters monitored on the study included: mortality, clinical signs and body weights. Blood samples were collected for TK evaluation. […] The single dose maximum tolerated dose (MTD) was determined to be greater than 160 mg/kg based on the parameters monitored during the study.
# [6] = Single dose toxicity in cynomolgus monkeys; assay type: in vivo, cynomolgus monkey; conditions: cynomolgus monkey, in vivo; oral gavage; read-out: single dose maximum tolerated dose (MTD)
# Method: as §1, §2
# [7] = female, dog, plasma, po, 0.5 mg/kg, female dogs, Gr 2, 0.5 mg/kg, D1
# [8] = female, dog, plasma, po, 0.5 mg/kg, female dogs, Gr 2, 0.5 mg/kg, D14
# [9] = female, dog, plasma, po, 1 mg/kg, female dogs, Gr 3, 1.0 mg/kg, D1
# [10] = female, dog, plasma, po, 1 mg/kg, female dogs, Gr 3, 1.0 mg/kg, D14
# [11] = female, dog, plasma, po, 5 mg/kg, female dogs, Gr 4, 5.0 mg/kg, D1
# [12] = female, dog, plasma, po, 5 mg/kg, female dogs, Gr 4, 5.0 mg/kg, D14
# [13] = male, dog, plasma, po, 0.5 mg/kg, male dogs, Gr 2, 0.5 mg/kg, D1
# [14] = male, dog, plasma, po, 0.5 mg/kg, male dogs, Gr 2, 0.5 mg/kg, D14
# [15] = male, dog, plasma, po, 1 mg/kg, male dogs, Gr 3, 1.0 mg/kg, D1
# [16] = male, dog, plasma, po, 1 mg/kg, male dogs, Gr 3, 1.0 mg/kg, D14
# [17] = male, dog, plasma, po, 5 mg/kg, male dogs, Gr 4, 5.0 mg/kg, D1
# [18] = male, dog, plasma, po, 5 mg/kg, male dogs, Gr 4, 5.0 mg/kg, D14
smiles,measurement,setting,value
CC[C@H]1CC2C[C@H]3c4[nH]c5ccc(O)cc5c4CCN(C2)C13 [noribogaine],CL/F,[1]; 3 mg (n = 6),41.4 (7.0) L/h
same,AUC0-216,[1]; 3 mg (n = 6),72.2 (13.2) ng · hr/ml
same,AUC0-∞,[1]; 3 mg (n = 6),74.2 (13.1) ng · hr/ml
same,Cmax,[1]; 3 mg (n = 6),5.2 (1.4) ng/ml
same,Tmax,[1]; 3 mg (n = 6),1.9 (0.6) hr
same,T½,[1]; 3 mg (n = 6),40.9 (8.7) hr
same,CL/F,[1]; 10 mg (n = 6),42.3 (12.0) L/h
same,AUC0-216,[1]; 10 mg (n = 6),251.4 (78.5) ng · hr/ml
same,AUC0-∞,[1]; 10 mg (n = 6),254.5 (78.9) ng · hr/ml
same,Cmax,[1]; 10 mg (n = 6),14.5 (2.1) ng/ml
same,Tmax,[1]; 10 mg (n = 6),2.9 (1.8) hr
same,T½,[1]; 10 mg (n = 6),49.2 (11.5) hr
same,CL/F,[1]; 30 mg (n = 6),46.9 (16.4) L/h
same,AUC0-216,[1]; 30 mg (n = 6),677.6 (221.1) ng · hr/ml
same,AUC0-∞,[1]; 30 mg (n = 6),700.4 (223.3) ng · hr/ml
same,Cmax,[1]; 30 mg (n = 6),55.9 (14.8) ng/ml
same,Tmax,[1]; 30 mg (n = 6),1.8 (0.6) hr
same,T½,[1]; 30 mg (n = 6),27.6 (7.0)) hr
same,CL/F,[1]; 60 mg (n = 6),34.0 (11.4) L/h
same,AUC0-216,[1]; 60 mg (n = 6),1935.4 (725.4) ng · hr/ml
same,AUC0-∞,[1]; 60 mg (n = 6),1962.2 (726.5) ng · hr/ml
same,Cmax,[1]; 60 mg (n = 6),116.0 (22.5) ng/ml
same,Tmax,[1]; 60 mg (n = 6),2.4 (0.6) hr
same,T½,[1]; 60 mg (n = 6),29.1 (9.3) hr
same,Dose proportionality of Cmax and AUC,[1]; 3-60 mg,Both Cmax and AUC increased linearly with dose
same,Mean half-life estimates,[1]; across dose groups,28 to 50 h
same,Volume of distribution,[1]; across dose groups,1417 to 3086 L
same,Time of peak concentrations after oral dosing,[1]; across dose groups 3-60 mg,2 to 3 h
same,Cmax,"[2]; female dogs, Gr 2, 0.5 mg/kg, D1",25.3 ng/mL
same,Cmax,"[2]; female dogs, Gr 2, 0.5 mg/kg, D14",29.8 ng/mL
same,Cmax,"[2]; female dogs, Gr 3, 1.0 mg/kg, D1",68.5 ng/mL
same,Cmax,"[2]; female dogs, Gr 3, 1.0 mg/kg, D14",74.1 ng/mL
same,Cmax,"[2]; female dogs, Gr 4, 5.0 mg/kg, D1",691 ng/mL
same,Cmax,"[2]; female dogs, Gr 4, 5.0 mg/kg, D14",683 ng/mL
same,AUC(0-inf),[2]; [7],44.9 ng·h/mL
same,Tmax,[2]; [7],0.5 h
same,half-life,[2]; [7],1 h
same,AUC(0-t),"[2]; female, dog, plasma, po, 0.5 mg/kg, female dogs, Gr 2, 0.5 mg/kg, D1, read-out: AUC0-24 h",40.4 ng·h/mL
same,AUC(0-t),"[2]; female, dog, plasma, po, 0.5 mg/kg, female dogs, Gr 2, 0.5 mg/kg, D1, read-out: AUC0-last",31.5 ng·h/mL
same,AUC(0-inf),[2]; [8],45.7 ng·h/mL
same,Tmax,[2]; [8],1 h
same,half-life,[2]; [8],1.1 h
same,AUC(0-t),"[2]; female, dog, plasma, po, 0.5 mg/kg, female dogs, Gr 2, 0.5 mg/kg, D14, read-out: AUC0-24 h",55 ng·h/mL
same,AUC(0-t),"[2]; female, dog, plasma, po, 0.5 mg/kg, female dogs, Gr 2, 0.5 mg/kg, D14, read-out: AUC0-last",35.4 ng·h/mL
same,AUC(0-inf),[2]; [9],165 ng·h/mL
same,Tmax,[2]; [9],0.8 h
same,half-life,[2]; [9],1.4 h
same,AUC(0-t),"[2]; female, dog, plasma, po, 1 mg/kg, female dogs, Gr 3, 1.0 mg/kg, D1, read-out: AUC0-24 h",176 ng·h/mL
same,AUC(0-t),"[2]; female, dog, plasma, po, 1 mg/kg, female dogs, Gr 3, 1.0 mg/kg, D1, read-out: AUC0-last",149 ng·h/mL
same,AUC(0-inf),[2]; [10],197 ng·h/mL
same,Tmax,[2]; [10],0.5 h
same,half-life,[2]; [10],1.6 h
same,AUC(0-t),"[2]; female, dog, plasma, po, 1 mg/kg, female dogs, Gr 3, 1.0 mg/kg, D14, read-out: AUC0-24 h",204 ng·h/mL
same,AUC(0-t),"[2]; female, dog, plasma, po, 1 mg/kg, female dogs, Gr 3, 1.0 mg/kg, D14, read-out: AUC0-last",169 ng·h/mL
same,AUC(0-inf),[2]; [11],3430 ng·h/mL
same,Tmax,[2]; [11],0.6 h
same,half-life,[2]; [11],4.3 h
same,AUC(0-t),"[2]; female, dog, plasma, po, 5 mg/kg, female dogs, Gr 4, 5.0 mg/kg, D1, read-out: AUC0-24 h",3370 ng·h/mL
same,AUC(0-t),"[2]; female, dog, plasma, po, 5 mg/kg, female dogs, Gr 4, 5.0 mg/kg, D1, read-out: AUC0-last",3370 ng·h/mL
same,AUC(0-inf),[2]; [12],6280 ng·h/mL
same,half-life,[2]; [12],5.7 h
same,AUC(0-t),"[2]; female, dog, plasma, po, 5 mg/kg, female dogs, Gr 4, 5.0 mg/kg, D14, read-out: AUC0-24 h",5950 ng·h/mL
same,AUC(0-t),"[2]; female, dog, plasma, po, 5 mg/kg, female dogs, Gr 4, 5.0 mg/kg, D14, read-out: AUC0-last",5950 ng·h/mL
same,AUC(0-inf),[2]; [13],67.8 ng·h/mL
same,Tmax,[2]; [13],0.7 h
same,half-life,[2]; [13],1.3 h
same,AUC(0-t),"[2]; male, dog, plasma, po, 0.5 mg/kg, male dogs, Gr 2, 0.5 mg/kg, D1, read-out: AUC0-24 h",59.7 ng·h/mL
same,AUC(0-t),"[2]; male, dog, plasma, po, 0.5 mg/kg, male dogs, Gr 2, 0.5 mg/kg, D1, read-out: AUC0-last",46.6 ng·h/mL
same,Cmax,"[2]; male, dog, plasma, po, 0.5 mg/kg, male dogs, Gr 2, 0.5 mg/kg, D1, read-out: Cmax",28.8 ng/mL
same,AUC(0-inf),[2]; [14],68.2 ng·h/mL
same,Tmax,[2]; [14],0.7 h
same,half-life,[2]; [14],1.3 h
same,AUC(0-t),"[2]; male, dog, plasma, po, 0.5 mg/kg, male dogs, Gr 2, 0.5 mg/kg, D14, read-out: AUC0-24 h",64.5 ng·h/mL
same,AUC(0-t),"[2]; male, dog, plasma, po, 0.5 mg/kg, male dogs, Gr 2, 0.5 mg/kg, D14, read-out: AUC0-last",53.2 ng·h/mL
same,Cmax,"[2]; male, dog, plasma, po, 0.5 mg/kg, male dogs, Gr 2, 0.5 mg/kg, D14, read-out: Cmax",29.4 ng/mL
same,AUC(0-inf),[2]; [15],121 ng·h/mL
same,Tmax,[2]; [15],0.9 h
same,half-life,[2]; [15],1.2 h
same,AUC(0-t),"[2]; male, dog, plasma, po, 1 mg/kg, male dogs, Gr 3, 1.0 mg/kg, D1, read-out: AUC0-24 h",120 ng·h/mL
same,AUC(0-t),"[2]; male, dog, plasma, po, 1 mg/kg, male dogs, Gr 3, 1.0 mg/kg, D1, read-out: AUC0-last",102 ng·h/mL
same,Cmax,"[2]; male, dog, plasma, po, 1 mg/kg, male dogs, Gr 3, 1.0 mg/kg, D1, read-out: Cmax",58.6 ng/mL
same,AUC(0-inf),[2]; [16],196 ng·h/mL
same,Tmax,[2]; [16],0.8 h
same,half-life,[2]; [16],1.8 h
same,AUC(0-t),"[2]; male, dog, plasma, po, 1 mg/kg, male dogs, Gr 3, 1.0 mg/kg, D14, read-out: AUC0-24 h",210 ng·h/mL
same,AUC(0-t),"[2]; male, dog, plasma, po, 1 mg/kg, male dogs, Gr 3, 1.0 mg/kg, D14, read-out: AUC0-last",172 ng·h/mL
same,Cmax,"[2]; male, dog, plasma, po, 1 mg/kg, male dogs, Gr 3, 1.0 mg/kg, D14, read-out: Cmax",67.6 ng/mL
same,AUC(0-inf),[2]; [17],3630 ng·h/mL
same,Tmax,[2]; [17],0.6 h
same,half-life,[2]; [17],4.7 h
same,AUC(0-t),"[2]; male, dog, plasma, po, 5 mg/kg, male dogs, Gr 4, 5.0 mg/kg, D1, read-out: AUC0-24 h",3520 ng·h/mL
same,AUC(0-t),"[2]; male, dog, plasma, po, 5 mg/kg, male dogs, Gr 4, 5.0 mg/kg, D1, read-out: AUC0-last",3520 ng·h/mL
same,Cmax,"[2]; male, dog, plasma, po, 5 mg/kg, male dogs, Gr 4, 5.0 mg/kg, D1, read-out: Cmax",693 ng/mL
same,AUC(0-inf),[2]; [18],6960 ng·h/mL
same,Tmax,[2]; [18],0.9 h
same,half-life,[2]; [18],6.5 h
same,AUC(0-t),"[2]; male, dog, plasma, po, 5 mg/kg, male dogs, Gr 4, 5.0 mg/kg, D14, read-out: AUC0-24 h",6400 ng·h/mL
same,AUC(0-t),"[2]; male, dog, plasma, po, 5 mg/kg, male dogs, Gr 4, 5.0 mg/kg, D14, read-out: AUC0-last",6400 ng·h/mL
same,Cmax,"[2]; male, dog, plasma, po, 5 mg/kg, male dogs, Gr 4, 5.0 mg/kg, D14, read-out: Cmax",716 ng/mL
same,Findings at the NOAEL dose,[3]; 5 mg/kg,only transient reduction in food consumption in one dog
same,Clinical signs,[3]; 10 mg/kg,Convulsions and other CNS-related clinical signs
same,Onset of clinical signs after dosing,[3]; 10 mg/kg,20 min
same,Mortality,[3]; oral doses of 5 (n=2) or 10 (n=2) mg/kg,no mortality occurred
same,NOAEL,[4],5 mg/kg
same,Mortality or treatment related clinical signs,[5],No mortality or treatment related clinical signs were noted
same,MTD,[6],> 160 mg/kg
